Laboratory results published in US9040713B2, “Methods of managing blood sugar levels and compositions related thereto” (EMORY UNIVERSITY, priority 2010, dated 2015).

What was measured:
ob/ob mice = assay: Intraperitoneal glucose tolerance test in ob/ob mice; assay type: in vivo, mouse; conditions: 5 mg/kg oral, glucose 2 g/kg i.p. 1 hour later
Method: Three-month-old mice were starved for 12 h and then orally administrated with vehicle (0.5% methylcellulose) or DDN (5 mg/kg). Cell lysates were prepared from liver and muscle tissues collected at 1 and 2 h after drug administration and analyzed by immunoprecipitation and immunoblotting. […] Three-month-old mice were starved for 12 h and then orally administrated with vehicle (0.5% methylcellulose) or DDN (5 mg/kg). Cell lysates were prepared from liver and muscle tissues collected at 1 and 2 h after drug administration and analyzed by immunoprecipitation and immunoblotting. (C) Hypoglycemic function of DDN in db/db mice. […] Blood glucose was monitored before and after drug administration at 1-hour intervals (*: P<0.05, **: P<0.01, n=5, Two-way ANOVA vs vehicle). […] Blood glucose was measured at 30-min intervals (*: P<0.05, **:P<0.01, n=5, Two-way ANOVA vs vehicle control).
(A) 4524-E7 provokes IR phosphorylation in various tissues of mice. […] Cell lysates from liver, muscle, and WAT were prepared at 3, 4, and 5 h after drug administration and analyzed by immunoblotting. (B) Basal and insulin-stimulated hepatic glucose production rates were measured by hyperinsulinemic-euglycemic clamp. […] Blood glucose was monitored at different time points as indicated (n=8, *: P<0.05, two-way ANOVA). […] Blood glucose was monitored at different time points as indicated (n=5, *: P<0.05, two-way ANOVA). […]

IR [1] = molecular target: IR (Homo sapiens, UniProt P06213); assay: Insulin competition assay (FITC-insulin, flow cytometry); assay type: binding; design: expressed in transfected cells; host or cells: CHO (CHO-IR, gift from Dr. Nicholas Webster, UCSD); conditions: CHO-IR cells
Method: Cells were washed three times, acquired on a FACScan, and the mean channel fluorescence (MCF) of bell-shaped histograms was analyzed using the CellQuest program.
Cells were washed three times, acquired on a FACScan, and the mean channel fluorescence (MCF) of bell-shaped histograms was analyzed using the FlowJ program.

IR [2] = molecular target: IR (Mus musculus, UniProt P15208); assay: IR signaling in differentiated 3T3-L1 adipocytes (immunoblotting); assay type: cell-based; design: endogenous in cells; host or cells: differentiated 3T3-L1 adipocytes; conditions: for Akt and ERK phosphorylation after IR knockdown / ERK phosphorylation after IR knockdown: siRNA against IR; for Akt and ERK phosphorylation after IR knockdown: 5 μM 4524-E7 or insulin 100 nM; for IR phosphorylation: 5 nM; for ERK phosphorylation after IR knockdown: insulin 100 nM 15 min or DDN 5 μM 30 min
Method: Insulin signaling in the cell lysates were tested by immunoblotting. (B) DDN stimulates glucose uptake. […] [3H]2-deoxyglucose was then added, and the cells were further incubated for 10 min. [3H]2-deoxyglucose uptake by adipocytes was measured by scintillation counting (*: P<0.05 **: P<0.01 vs control, Student's t-test, n=3). (C) DDN synergizes insulin's signaling. […] Cell lysates were then prepared for Western blot using specific antibodies as indicated. […] 3H-2-deoxyglucose was then added, and the cells were further incubated for 10 min. 3H-2-deoxyglucose uptake by adipocytes was measured by scintillation counting (*: P<0.05; **: P<0.01, Student's t-test, n=3). (E) IR is necessary for DDN to induce ERK phosphorylation. Differentiated 3T3-L1 adipocytes were transfected with control siRNA or siRNA against IR. […] Cell lysates were analyzed by Western blot. (F) The glucose uptake induced by DDN in p85α knockout MEF cells. […] The uptake of 3H-2-deoxyglucose was monitored by liquid scintillation counting (*: P<0.05; **: P<0.01 vs control, Student's t-test, n=3).
(A) 4524-E7 activates IR phosphorylation and its downstream signaling in 3T3-L1 adipocytes. […] The cells were lysed, and immunoprecipitated with PY20, and followed by Western blot using specific antibodies. (B) 4524-E7 stimulates glucose uptake in 3T3-L1 adipocytes. […] [3H]2-deoxyglucose was added, and the cells were further incubated for 10 min. The amount of [3H]2-deoxyglucose taken by adipocytes was measured. (C) 4524-E7 inhibits fatty acid oxidation. […] Results were normalized to DMSO-treated cells and expressed as mean±S.E.M. (*: P<0.05; **:P<0.01, Student's t-test, n=3). (D) IR knockdown in adipocytes decreases IR signaling by 4524-E7. […] Cells lysates were collected and analyzed by Western blot. (E) The glucose uptake induced by 4524-E7 in p85α knockout MEF cells. […] The uptaken [3H] 2-deoxyglucose was monitored by liquid scintillation counter. Results were expressed as mean±S.E.M. (*: P<0.05; **:P<0.01, Student's t-test, n=3). […]

Sequence of IR (Mus musculus, UniProt P15208) (P15208 28-1372): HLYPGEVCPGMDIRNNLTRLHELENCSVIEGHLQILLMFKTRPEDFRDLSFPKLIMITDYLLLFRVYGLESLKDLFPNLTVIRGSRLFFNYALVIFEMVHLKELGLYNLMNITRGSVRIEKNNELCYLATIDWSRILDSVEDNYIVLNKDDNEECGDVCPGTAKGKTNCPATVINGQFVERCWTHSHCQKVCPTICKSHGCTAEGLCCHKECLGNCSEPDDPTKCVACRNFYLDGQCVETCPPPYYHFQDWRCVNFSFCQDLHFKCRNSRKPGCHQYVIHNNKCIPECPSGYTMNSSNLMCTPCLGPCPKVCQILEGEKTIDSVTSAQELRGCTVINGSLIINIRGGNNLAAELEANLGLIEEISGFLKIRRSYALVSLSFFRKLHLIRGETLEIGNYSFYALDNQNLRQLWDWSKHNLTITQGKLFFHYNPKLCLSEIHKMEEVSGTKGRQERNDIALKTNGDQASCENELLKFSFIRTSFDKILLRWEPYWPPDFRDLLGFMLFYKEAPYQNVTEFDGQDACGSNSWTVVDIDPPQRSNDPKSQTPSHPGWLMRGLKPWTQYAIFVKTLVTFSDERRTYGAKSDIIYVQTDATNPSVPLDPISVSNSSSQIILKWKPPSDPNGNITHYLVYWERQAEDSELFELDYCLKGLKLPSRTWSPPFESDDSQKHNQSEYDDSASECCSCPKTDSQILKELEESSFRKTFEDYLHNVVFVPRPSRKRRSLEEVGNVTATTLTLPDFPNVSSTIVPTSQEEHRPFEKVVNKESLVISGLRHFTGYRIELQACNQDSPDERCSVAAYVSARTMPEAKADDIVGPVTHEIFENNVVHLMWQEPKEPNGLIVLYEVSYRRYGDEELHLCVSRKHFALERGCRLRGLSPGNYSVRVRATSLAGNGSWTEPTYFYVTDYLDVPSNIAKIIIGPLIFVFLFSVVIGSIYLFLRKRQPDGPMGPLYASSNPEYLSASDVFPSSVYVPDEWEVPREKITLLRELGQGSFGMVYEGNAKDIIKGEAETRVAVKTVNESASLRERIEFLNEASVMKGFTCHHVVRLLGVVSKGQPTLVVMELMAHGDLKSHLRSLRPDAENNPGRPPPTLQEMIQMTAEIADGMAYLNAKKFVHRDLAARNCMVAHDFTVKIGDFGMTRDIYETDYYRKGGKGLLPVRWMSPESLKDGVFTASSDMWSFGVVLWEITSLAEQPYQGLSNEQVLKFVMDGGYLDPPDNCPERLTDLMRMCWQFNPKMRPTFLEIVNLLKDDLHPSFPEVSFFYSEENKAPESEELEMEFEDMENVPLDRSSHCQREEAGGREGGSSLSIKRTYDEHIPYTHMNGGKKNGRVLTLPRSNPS
Sequence of IR (Homo sapiens, UniProt P06213) (P06213 763-1382 limits assumed): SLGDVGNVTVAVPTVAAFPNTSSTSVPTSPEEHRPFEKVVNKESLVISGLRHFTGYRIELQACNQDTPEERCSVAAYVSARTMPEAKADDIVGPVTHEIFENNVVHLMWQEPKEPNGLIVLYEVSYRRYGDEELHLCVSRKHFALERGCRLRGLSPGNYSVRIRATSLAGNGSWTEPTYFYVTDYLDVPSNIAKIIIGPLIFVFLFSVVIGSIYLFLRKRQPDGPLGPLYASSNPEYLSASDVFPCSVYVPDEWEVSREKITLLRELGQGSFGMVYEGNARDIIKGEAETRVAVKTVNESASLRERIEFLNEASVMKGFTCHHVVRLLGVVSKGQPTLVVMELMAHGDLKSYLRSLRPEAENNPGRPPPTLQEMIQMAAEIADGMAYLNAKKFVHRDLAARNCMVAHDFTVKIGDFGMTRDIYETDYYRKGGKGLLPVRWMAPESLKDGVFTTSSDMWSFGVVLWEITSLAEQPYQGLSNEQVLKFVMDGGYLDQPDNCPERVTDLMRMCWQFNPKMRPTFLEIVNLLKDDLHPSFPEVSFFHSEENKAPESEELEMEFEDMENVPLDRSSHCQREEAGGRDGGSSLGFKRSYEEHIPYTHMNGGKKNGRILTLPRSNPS
Sequence of IR (Homo sapiens, UniProt P06213) (P06213 28-758 limits assumed): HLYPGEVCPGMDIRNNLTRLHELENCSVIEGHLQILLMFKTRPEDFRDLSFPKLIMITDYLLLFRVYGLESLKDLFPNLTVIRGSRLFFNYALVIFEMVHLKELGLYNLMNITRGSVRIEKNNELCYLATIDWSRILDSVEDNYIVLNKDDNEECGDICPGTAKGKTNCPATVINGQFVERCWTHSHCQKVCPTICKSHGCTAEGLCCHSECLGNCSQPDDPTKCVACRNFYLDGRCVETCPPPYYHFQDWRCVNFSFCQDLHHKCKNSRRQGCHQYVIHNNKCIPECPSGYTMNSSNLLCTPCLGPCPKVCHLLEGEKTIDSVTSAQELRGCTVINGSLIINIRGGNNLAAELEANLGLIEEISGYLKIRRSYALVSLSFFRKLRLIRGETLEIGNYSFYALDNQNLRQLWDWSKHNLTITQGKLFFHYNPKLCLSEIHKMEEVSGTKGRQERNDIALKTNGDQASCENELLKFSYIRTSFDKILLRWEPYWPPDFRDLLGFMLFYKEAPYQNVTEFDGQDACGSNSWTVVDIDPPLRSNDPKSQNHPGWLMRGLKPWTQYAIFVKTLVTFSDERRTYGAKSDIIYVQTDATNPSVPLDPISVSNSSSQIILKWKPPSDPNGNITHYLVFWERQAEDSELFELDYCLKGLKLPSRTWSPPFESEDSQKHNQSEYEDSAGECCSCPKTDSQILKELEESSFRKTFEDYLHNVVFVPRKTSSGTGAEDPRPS

Row | Compound | glucose tolerance (ob/ob mice) | competition with FITC-insulin for IR binding (shift of fluorescent peak) (IR [1]; 10 nM FITC-insulin, unlabelled insulin 1 μM) | IR, Akt and Erk1/2 phosphorylation in combination with insulin (IR [2]; 4524-E7 plus 10 nM insulin) | activation of endogenous IR (IR [2]; different concentrations, 15 min, alone) | Akt and ERK phosphorylation after IR knockdown (IR [2]) | IR phosphorylation (IR [2]; alone) | ERK phosphorylation after IR knockdown (IR [2]) | competition with FITC-insulin for IR binding (shift of fluorescent peak) (IR [1]; 100 nM FITC-insulin, unlabelled insulin 5 μM) | IR phosphorylation in combination with insulin (IR [2]; 5 nM DDN plus 5 nM insulin) | IR and Akt activation (IR [2]; DDN 0.1, 0.25, 0.5 μM, 30 min)
1 | O=C1c2ccccc2C(=O)C2SC(Nc3ccc(Cl)cc3)=NC12 (centres unmarked) [4524-E7, 2-((4-chlorophenyl)amino)naphtho[2,3-d]thiazole-4,9(3aH,9aH)-dione] | significant improvement of glucose tolerance | no significant change of the shifted peak position | much more robust IR, Akt and Erk1/2 phosphorylation than insulin or 4524-E7 alone | could activate the endogenous IR | also reduced |  |  |  |  | 
2 | insulin: insulin, used as positive control |  |  |  |  | also reduced | able to trigger IR phosphorylation | reduced when IR was depleted |  |  | 
3 | CC(=O)Oc1ccc(OC(C)=O)c2c1C(=O)C(Cl)=C(Cl)C2=O [DDN, 5,8-diacetyloxy-2,3-dichloro-1,4-naphthoquinone] | significant improvement in glucose tolerance |  |  |  |  | did not induce any IR activation | reduced when IR was depleted | No significant change of the shifted peak position | higher than those observed when insulin or DDN was administrated separately | elicited a dose-dependent IR and Akt activation
